Measurements: US20240327364A1, “THERAPEUTIC TARGETING OF GPR68 TO INDUCE FERROPTOSIS” (University Of Maryland, Baltimore, priority 2023, published 2024)

Legend:
5-HT2B = molecular target: T1, 5-HT2B (Homo sapiens, UniProt P41595); test: GPCR Profiler; assay type: cell-based
T1 construct: host or cells: Chem-1 cells with promiscuous Gα15

MC4 = molecular target: T2, MC4 (Homo sapiens, UniProt P32245); test: GPCR Profiler; assay type: cell-based
T2 construct: host or cells: Chem-1 cells with promiscuous Gα15
T2 sequence (P32245 whole entry): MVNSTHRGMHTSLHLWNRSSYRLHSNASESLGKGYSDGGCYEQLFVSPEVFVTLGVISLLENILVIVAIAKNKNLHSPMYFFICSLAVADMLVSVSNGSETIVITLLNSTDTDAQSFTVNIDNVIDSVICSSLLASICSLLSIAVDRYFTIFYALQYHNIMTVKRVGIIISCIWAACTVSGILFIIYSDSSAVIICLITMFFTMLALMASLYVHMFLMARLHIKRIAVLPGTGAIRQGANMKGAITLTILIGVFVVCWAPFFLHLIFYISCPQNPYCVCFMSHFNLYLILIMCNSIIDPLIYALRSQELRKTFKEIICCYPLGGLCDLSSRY

AURKB = molecular target: T3, AURKB (Homo sapiens, UniProt Q96GD4); test: KinomeScan; assay type: binding; details: read-out: % Control
T3 construct: purchased DiscoveRx (Fremont, CA)
T3 sequence (Q96GD4 whole entry): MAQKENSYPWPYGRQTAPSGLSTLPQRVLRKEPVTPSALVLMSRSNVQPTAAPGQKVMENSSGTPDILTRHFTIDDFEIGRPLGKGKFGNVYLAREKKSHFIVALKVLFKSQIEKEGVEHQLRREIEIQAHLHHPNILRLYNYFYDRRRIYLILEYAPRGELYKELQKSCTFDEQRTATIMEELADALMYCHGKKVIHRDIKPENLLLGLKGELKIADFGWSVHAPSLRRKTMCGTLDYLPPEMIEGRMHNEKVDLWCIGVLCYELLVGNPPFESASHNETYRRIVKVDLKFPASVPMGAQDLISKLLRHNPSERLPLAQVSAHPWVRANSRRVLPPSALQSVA

PAK1 = molecular target: T4, PAK1 (Homo sapiens, UniProt Q13153); test: KinomeScan; assay type: binding; details: read-out: % Control
T4 construct: purchased DiscoveRx
T4 sequence (Q13153 whole entry): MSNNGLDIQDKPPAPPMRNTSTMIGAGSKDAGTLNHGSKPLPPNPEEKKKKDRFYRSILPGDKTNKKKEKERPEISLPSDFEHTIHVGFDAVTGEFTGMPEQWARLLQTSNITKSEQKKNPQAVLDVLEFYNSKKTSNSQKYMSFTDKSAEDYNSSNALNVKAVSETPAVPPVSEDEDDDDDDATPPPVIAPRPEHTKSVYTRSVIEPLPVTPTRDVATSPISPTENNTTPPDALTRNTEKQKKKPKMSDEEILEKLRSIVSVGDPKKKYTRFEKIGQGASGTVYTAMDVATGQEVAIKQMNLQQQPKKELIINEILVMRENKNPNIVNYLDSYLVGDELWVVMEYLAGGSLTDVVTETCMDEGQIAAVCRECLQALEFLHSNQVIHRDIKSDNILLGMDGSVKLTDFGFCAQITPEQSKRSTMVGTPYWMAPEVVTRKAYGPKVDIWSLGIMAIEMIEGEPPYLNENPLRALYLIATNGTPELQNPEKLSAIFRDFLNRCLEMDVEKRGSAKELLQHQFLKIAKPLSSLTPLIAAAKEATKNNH

RIOK2 = molecular target: T5, RIOK2 (Homo sapiens, UniProt Q9BVS4); test: KinomeScan; assay type: binding; details: read-out: % Control
T5 construct: purchased DiscoveRx (Fremont, CA)

PIK3CB = molecular target: T6, PIK3CB (Homo sapiens, UniProt P42338); test: KinomeScan; assay type: binding; details: read-out: % Control
T6 construct: purchased DiscoveRx (Fremont, CA)
T6 sequence (P42338 whole entry): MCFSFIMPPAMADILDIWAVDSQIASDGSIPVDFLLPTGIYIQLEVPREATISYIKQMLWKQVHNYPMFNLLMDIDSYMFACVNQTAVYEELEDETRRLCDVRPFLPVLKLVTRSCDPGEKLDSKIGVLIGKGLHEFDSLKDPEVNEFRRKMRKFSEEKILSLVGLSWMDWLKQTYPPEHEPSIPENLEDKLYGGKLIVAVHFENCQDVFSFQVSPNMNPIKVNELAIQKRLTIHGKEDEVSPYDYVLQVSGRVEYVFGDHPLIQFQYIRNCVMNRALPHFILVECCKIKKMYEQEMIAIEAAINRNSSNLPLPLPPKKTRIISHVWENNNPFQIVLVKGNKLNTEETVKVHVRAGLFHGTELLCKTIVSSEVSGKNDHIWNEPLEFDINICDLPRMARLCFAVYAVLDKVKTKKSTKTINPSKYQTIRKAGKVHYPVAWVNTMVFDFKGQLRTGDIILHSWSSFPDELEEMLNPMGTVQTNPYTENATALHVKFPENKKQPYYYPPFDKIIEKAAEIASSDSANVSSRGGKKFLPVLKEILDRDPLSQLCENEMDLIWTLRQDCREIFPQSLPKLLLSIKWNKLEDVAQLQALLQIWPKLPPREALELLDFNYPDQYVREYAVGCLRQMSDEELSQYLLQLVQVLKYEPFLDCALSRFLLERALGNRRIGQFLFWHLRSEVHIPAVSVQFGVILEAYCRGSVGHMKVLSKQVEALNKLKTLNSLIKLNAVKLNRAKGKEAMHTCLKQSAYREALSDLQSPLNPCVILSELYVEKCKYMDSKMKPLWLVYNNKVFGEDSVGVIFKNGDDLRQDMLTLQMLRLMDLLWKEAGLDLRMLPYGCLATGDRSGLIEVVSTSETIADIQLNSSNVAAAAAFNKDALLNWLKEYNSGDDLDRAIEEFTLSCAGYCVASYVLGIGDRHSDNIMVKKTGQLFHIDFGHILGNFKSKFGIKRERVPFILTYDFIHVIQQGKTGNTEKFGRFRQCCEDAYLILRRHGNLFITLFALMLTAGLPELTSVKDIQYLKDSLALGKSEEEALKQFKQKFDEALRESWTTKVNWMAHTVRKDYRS

p38-gamma = molecular target: T7, p38-gamma (Homo sapiens, UniProt P53778); test: KinomeScan; assay type: binding; details: read-out: % Control
T7 construct: purchased DiscoveRx
T7 sequence (P53778 whole entry): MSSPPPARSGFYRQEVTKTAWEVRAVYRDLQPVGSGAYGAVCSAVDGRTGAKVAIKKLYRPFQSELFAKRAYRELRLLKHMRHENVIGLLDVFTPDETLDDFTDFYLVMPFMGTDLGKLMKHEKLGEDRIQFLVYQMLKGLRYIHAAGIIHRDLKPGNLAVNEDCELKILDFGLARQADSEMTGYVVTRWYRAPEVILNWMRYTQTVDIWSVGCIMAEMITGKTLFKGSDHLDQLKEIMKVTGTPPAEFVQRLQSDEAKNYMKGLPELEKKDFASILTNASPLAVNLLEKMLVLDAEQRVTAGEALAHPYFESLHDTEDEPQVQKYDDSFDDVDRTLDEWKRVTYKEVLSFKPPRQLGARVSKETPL

OX1 = molecular target: T8, OX1 (Homo sapiens, UniProt O43613); test: GPCR Profiler; assay type: cell-based
T8 construct: host or cells: Chem-1 cells expressing Gα15
T8 sequence (O43613 whole entry): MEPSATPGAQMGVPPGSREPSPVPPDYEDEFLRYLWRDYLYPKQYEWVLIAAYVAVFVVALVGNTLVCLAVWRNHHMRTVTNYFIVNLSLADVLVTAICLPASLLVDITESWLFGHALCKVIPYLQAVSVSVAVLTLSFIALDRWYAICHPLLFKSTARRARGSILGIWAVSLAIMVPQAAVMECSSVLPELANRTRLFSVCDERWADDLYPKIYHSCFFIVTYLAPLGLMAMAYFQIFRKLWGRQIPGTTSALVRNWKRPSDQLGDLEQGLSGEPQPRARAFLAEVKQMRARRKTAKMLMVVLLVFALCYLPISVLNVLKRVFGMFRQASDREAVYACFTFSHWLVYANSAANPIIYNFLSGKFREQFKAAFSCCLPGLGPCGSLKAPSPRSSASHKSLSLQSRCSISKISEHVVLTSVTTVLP

CAMK2B = molecular target: T9, CAMK2B (Homo sapiens, UniProt Q13554); test: KinomeScan; assay type: binding; details: read-out: % Control
T9 construct: purchased DiscoveRx (KinomeScan service)
T9 sequence (Q13554 whole entry): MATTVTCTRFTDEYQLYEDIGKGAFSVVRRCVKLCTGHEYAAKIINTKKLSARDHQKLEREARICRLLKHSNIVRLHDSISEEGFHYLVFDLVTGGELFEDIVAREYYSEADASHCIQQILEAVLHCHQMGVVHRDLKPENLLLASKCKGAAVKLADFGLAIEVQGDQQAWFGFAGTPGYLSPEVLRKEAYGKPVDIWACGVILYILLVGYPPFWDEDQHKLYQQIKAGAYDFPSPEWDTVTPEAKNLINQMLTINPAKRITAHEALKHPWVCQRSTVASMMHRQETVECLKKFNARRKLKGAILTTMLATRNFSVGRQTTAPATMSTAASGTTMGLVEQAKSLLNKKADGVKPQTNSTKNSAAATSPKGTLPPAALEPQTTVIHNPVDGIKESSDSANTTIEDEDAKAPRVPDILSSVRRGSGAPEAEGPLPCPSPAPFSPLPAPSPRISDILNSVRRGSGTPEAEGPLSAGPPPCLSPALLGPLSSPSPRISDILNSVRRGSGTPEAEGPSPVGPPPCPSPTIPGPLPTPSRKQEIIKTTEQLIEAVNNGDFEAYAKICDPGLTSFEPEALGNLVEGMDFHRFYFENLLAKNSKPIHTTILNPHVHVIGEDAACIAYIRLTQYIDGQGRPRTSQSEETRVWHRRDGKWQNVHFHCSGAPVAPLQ

SYK = molecular target: T10, SYK (Homo sapiens, UniProt P43405); test: KinomeScan; assay type: binding; details: read-out: % Control
T10 construct: purchased DiscoveRx (Fremont, CA)

A3 = molecular target: T11, A3 (Homo sapiens, UniProt P0DMS8); test: GPCR Profiler; assay type: cell-based
T11 construct: host or cells: Chem-1 cells with promiscuous Gα15
T11 sequence (P0DMS8 whole entry): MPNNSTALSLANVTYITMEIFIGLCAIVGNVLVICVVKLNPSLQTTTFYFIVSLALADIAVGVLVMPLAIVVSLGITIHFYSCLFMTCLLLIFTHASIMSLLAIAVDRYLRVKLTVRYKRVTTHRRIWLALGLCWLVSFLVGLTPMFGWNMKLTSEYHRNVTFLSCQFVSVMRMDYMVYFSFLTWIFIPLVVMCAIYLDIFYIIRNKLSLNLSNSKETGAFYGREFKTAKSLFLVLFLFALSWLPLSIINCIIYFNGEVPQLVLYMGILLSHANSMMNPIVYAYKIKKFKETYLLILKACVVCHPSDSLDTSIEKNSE

CXCR1 = molecular target: T12, CXCR1 (Homo sapiens, UniProt P25024); test: GPCR Profiler; assay type: cell-based
T12 construct: host or cells: Chem-1 cells with Gα15
T12 sequence (P25024 whole entry, species assumed): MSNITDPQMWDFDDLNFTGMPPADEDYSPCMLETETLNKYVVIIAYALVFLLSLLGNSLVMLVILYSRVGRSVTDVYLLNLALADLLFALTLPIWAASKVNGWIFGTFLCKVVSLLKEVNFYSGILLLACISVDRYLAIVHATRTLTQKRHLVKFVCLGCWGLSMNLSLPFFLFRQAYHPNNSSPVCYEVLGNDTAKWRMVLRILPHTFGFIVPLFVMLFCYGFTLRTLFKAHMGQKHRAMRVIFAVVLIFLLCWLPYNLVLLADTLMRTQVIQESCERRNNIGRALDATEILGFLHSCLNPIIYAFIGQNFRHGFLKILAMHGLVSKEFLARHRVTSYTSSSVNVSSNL

MTOR = molecular target: T13, MTOR (Homo sapiens, UniProt P42345); test: KinomeScan; assay type: binding; details: read-out: % Control
T13 construct: purchased DiscoveRx

YANK3 = molecular target: T14, YANK3 (Homo sapiens, UniProt Q86UX6); test: KinomeScan; assay type: binding; details: read-out: % Control
T14 construct: purchased DiscoveRx

Daoy = test: Cell Titer-Glo viability, Medulloblastoma; assay type: cell-based; details: 72 hours
Method: OGM2 kills wide variety of cancer cell types. Cell sensitivity can be classified in to Very Sensitive (LC50<2 μM), Sensitive (LC50=2 to 10 μM), Mildly Sensitive (LC50>10 μM), and Refractory (no killing at 10 μM). The listed established cell were incubated with OGM2 at 2 μM or 10 μM for 72 hours under standard cell culture conditions, and relative cell number was assessed using Cell Titer-Glo Luminescent Cell Viability Assay (Promega™) following the manufacturer's instructions. Luminescence was determined using a Cytation 5 reader and Gen5 software package (BioTek™).
Cancer cells, which are very sensitive to killing by OGM2 (LCs <2 μM), with reported mRNA expression of GPR68 and the related proton sensing receptor GPR4. LC50's (concentrations causing 50% lethality) were determined using CellTiter-Glo (Promega™, G7570). Cells were plated in 12-well plates (CELLTREAT Scientific Products, 229112) in 1 ml of DMEM with high glucose, GlutaMAX, HEPES, or RPMI 1640 with Penicillin-Streptomycin (ThermoFisher™, 10564029, 11875119 and 15140122) and 10% FBS. Cells were incubated overnight at 37° C. in 5% CO2. Then 1 mL of fresh media was added with DMSO, OGM, or positive control (Erastin; APExBIO Technology, LLC, B1524) and cells incubated for 3 days. On the third day, all media was removed, cells were rinsed with 1×PBS, PBS was removed, and 200 μL of 1× Passive Lysis Buffer (Promega™, E1941) was added to each well. […]. […] Plates were briefly spun down and read on a GloMax-Multi Detection System (Promega™).
The cells listed in the tables above were incubated with OGM2 at 2 μM or 10 μM for 72 hours under standard cell culture conditions, and relative cell number was assessed using Cell Titer-Glo Luminescent Cell Viability Assay (Promega™) following the manufacturer's instructions. Luminescence was determined using a Cytation 5 reader and Gen5 software package (BioTek™). […] The consensus normalized expression value (“nTPM”=normalize transcript per million) was calculated as the maximum nTPM value for each gene in the two data sources.

U87 = test: Liperfluo lipid peroxidation; assay type: cell-based, human; details: OGM2 and 2Gy ionizing radiation
Method: (§1) Cells were plated on a 100 mm cell culture dish (CELLTREAT Scientific Products) in 10 mls of DMEM with high glucose, GlutaMAX, HEPES, Penicillin-Streptomycin (ThermoFisher™) and 10% FBS. Cells were incubated overnight at 37° C. in 5% CO2. Media were then replaced with […] fresh media with DMSO, OGM2, or Erastin (APExBIO Technology™) and the cells incubated for 3 days. On the third day, 3 mL fresh media with 2.5 μM Liperfluo™ (Dojindo Molecular Technologies™, Inc.) resuspended in DMSO was added and cells were incubated at 37° C. in 5% CO2 for 1 hour. Cells were subsequently trypsinized for 5 minutes, pelleted by centrifugation, and resuspended in cell sorting media (1% BSA and 1 mM EDTA in PBS pH 7.4). Ten thousand events were recorded on a BD LSR II and the data processed using the FlowJo™ software.
(§2) Where appropriate, ANOVA, or student's T-test were conducted in PRISM. Chi squared T(X) was used for Liperfluo analysis. A value T(X)>4 implies that the two distributions are different with a p<0.01 (99% confidence). For drug interaction and therapeutic interaction, the coefficient of drug interaction (CDI) was calculated as follows: CDI=AB/(A×B). According to the impact of each group, AB is the value of combined treatment and A or B is the value of the single agent group to control group.

U138 = test: Liperfluo lipid peroxidation; assay type: cell-based, human
Method: as §1, §2

T1 sequence (P41595 whole entry): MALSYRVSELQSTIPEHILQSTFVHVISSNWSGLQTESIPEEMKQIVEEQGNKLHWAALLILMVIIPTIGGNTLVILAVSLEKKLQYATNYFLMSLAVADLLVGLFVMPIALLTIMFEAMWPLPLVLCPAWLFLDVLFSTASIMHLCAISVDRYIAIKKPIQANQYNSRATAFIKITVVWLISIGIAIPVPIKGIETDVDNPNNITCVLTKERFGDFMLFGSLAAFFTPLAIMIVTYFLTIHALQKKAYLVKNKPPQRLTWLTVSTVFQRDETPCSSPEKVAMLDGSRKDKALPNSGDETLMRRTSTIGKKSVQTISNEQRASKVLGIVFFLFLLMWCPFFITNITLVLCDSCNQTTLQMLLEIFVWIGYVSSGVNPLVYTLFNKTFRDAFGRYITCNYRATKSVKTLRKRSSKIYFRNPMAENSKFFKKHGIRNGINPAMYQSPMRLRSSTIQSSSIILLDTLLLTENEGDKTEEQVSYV

CCc1ccc2c(c1)C1(NN=C(c3cccc4ccccc34)S1)C(=O)N2 (centres unmarked) [OGM1, 5-ethyl-5′-naphthalen-1-ylspiro[1H-indole-3,2′-3H-1,3,4-thiadiazole]-2-one]
Antagonism (5-HT2B; 10 uM): 0.3 | Agonism (5-HT2B; 12.5 uM): −0.1 | Antagonism (MC4; 10 uM): −5.4 | Agonism (MC4; 12.5 uM): −0.3 | remaining binding at 10 µM (AURKB): 86% | remaining binding at 10 µM (PAK1): 70% | remaining binding at 10 µM (RIOK2): 100% | remaining binding at 10 µM (PIK3CB): 100% | remaining binding at 10 µM (p38-gamma): 94% | Antagonism (OX1; 10 uM): 1.6 | Agonism (OX1; 12.5 uM): 1.4 | remaining binding at 10 µM (CAMK2B): 60% | remaining binding at 10 µM (SYK): 98% | Antagonism (A3; 10 uM): 3.2 | Agonism (A3; 12.5 uM): −0.4 | Antagonism (CXCR1; 10 uM): 6.5 | Agonism (CXCR1; 12.5 uM): −0.7 | remaining binding at 10 µM (MTOR): 86% | remaining binding at 10 µM (YANK3): 100%

CCc1ccc2c(c1)C1(NN=C(c3ccccc3)S1)C(=O)N2 (centres unmarked) [OGM2]
% Survival 2 μM OGM (Daoy): 9.0% | % Survival 10 μM OGM (Daoy): 10.5% | CC50 (Daoy; Homo sapiens, Daoy, read-out: LC50 (the source's name)): < 2000 nM | CDI, lipid peroxidation (U87): < 0.06 | Chi-squared T(X), lipid peroxidation (U138; 2 μM): 273 | Chi-squared T(X), lipid peroxidation (U138; 10 μM): 592 | CDI, lipid peroxidation (U138; OGM2 and 2Gy ionizing radiation): < 0.006
